From patent US20120156333A1, “STABILIZED BETA CRYPTOXANTHIN-CONTAINING WATER AND THE USE THEREOF” (ARKRAY, INC., priority 2010, published 2012)

What was measured:
[1] = Storage stability at 20° C. and 25° C. calculated by Arrhenius equation, Example 4B; type: physicochemical; conditions: for possible storage period in a stable state: β cryptoxanthin-containing waters of Examples 1B, 2B, and 3B
Description: With respect to the β cryptoxanthin-containing waters prepared in Examples 1B, 2B, and 3B, storage stability at 20° C. and 25° C. was determined. Determination of the storage stability was performed in the same manner as in Example 4A.

[2] = compound of structural formula (1); stated as known; cited from earlier work
[3] = β cryptoxanthin stabilizing test, Example 2B (water from powder, varied β cryptoxanthin concentration, stored at 45° C.); type: physicochemical
Description: The prepared powder derived from Citrus unshiu and water were mixed. Thus, β cryptoxanthin-containing waters were prepared. In the mixing, concentrations of the β cryptoxanthin were set to predetermined parts by mass with respect to 100 parts by mass of a combination of the water and components contained in the water. The predetermined parts by mass were 0.0005, 0.0010, 0.0022, 0.0031, 0.0060, and 0.0079 parts by mass. Thus, six types of β cryptoxanthin-containing waters each having a different concentration of the β cryptoxanthin were prepared. Each of the β cryptoxanthin-containing waters was sufficiently stirred. Thereafter 90 g of the resultant β cryptoxanthin-containing water was filled in an aluminum pouch, which was then sterilized under the condition at 85° C. for 30 minutes. Six types of the β cryptoxanthin-containing waters of the example were stored at 45° C. for one month. Sampling was conducted on a storage start date and after one month from the storage start date. The respective amounts of β cryptoxanthin in samples were measured by HPLC in the same manner as in Example 1B. Then, assuming that the amount of β cryptoxanthin on the storage start date was 100%, residual ratios of β cryptoxanthin were determined.

[4] = β cryptoxanthin stabilizing test, Example 1B (water from paste, varied β cryptoxanthin concentration, stored at 45° C.); type: physicochemical
Description: The prepared paste derived from Citrus unshiu and water were mixed. Thus, β cryptoxanthin-containing waters were prepared. In the mixing, concentrations of the β cryptoxanthin were set to predetermined parts by mass with respect to 100 parts by mass of a combination of the water and components contained in the water. The predetermined parts by mass were 0.0031, 0.0044, 0.0062, 0.0086, 0.0176, and 0.0244 parts by mass. Thus, six types of β cryptoxanthin-containing waters each having a different concentration of the β cryptoxanthin were prepared. Each of the β cryptoxanthin-containing waters was sufficiently stirred. Thereafter 90 g of the resultant β cryptoxanthin-containing water was filled in an aluminum pouch, which was then sterilized under the condition at 85° C. for 30 minutes. As a comparative example, two types of β cryptoxanthin-containing waters were prepared in the same manner as described above except that the concentrations of the β cryptoxanthin were set to 0.0011 and 0.0016 parts by mass.
Six types of the β cryptoxanthin-containing waters of the example and two types of β cryptoxanthin-containing waters of the comparative example were stored at 45° C. for one month. Sampling was conducted on a storage start date and after one month from the storage start date. The respective amounts of β cryptoxanthin in samples were measured by HPLC as shown below. Then, assuming that the amount of β cryptoxanthin on the storage start date was 100%, residual ratios of β cryptoxanthin were determined.
The samples were treated at 70° C. for 30 minutes under alkaline conditions before being subjected to HPLC. By this treatment, β cryptoxanthin in the samples was saponified and was converted to a free form. After the treatment, the samples were subjected to a liquid-liquid extraction and were then concentrated. Concentrated samples thus obtained were used as samples for HPLC.
In the measurements of the amounts of β cryptoxanthin by HPLC, a HPLC system to which a column (J′sphere ODS-M80 (product name) with 250×4.6 mm I.D, produced by YMC Co., Ltd.) had been connected was used, and absorbances at 455 nm were measured by a UV detector (L-4200H (product name), produced by Hitachi Ltd.). Conditions of the column were as follows. • Mobile phase: acetonitrile/tetrahydrofuran (volume ratio: 95/5) containing 0.1% acetic acid and 50 ppm of α-tocopherol • Flow rate: 1.0 mL/minute • Column temperature: 55° C.

In the case of `CC1=C(/C=C/C(C)=C/C=C/C(C)=C/C=C/C=C(C)/C=C/C=C(C)/C=C/C2=C(C)C[C@@H](O)CC2(C)C)C(C)(C)CCC1` [β cryptoxanthin], the “storage in a stable state at normal temperature” value ([1]; Example 4B, normal temperature (20° C. to 25° C.)) was “two years or more”, the “possible storage period in a stable state” value ([1]; 20° C.) was “about 32.7 months” and the “possible storage period in a stable state” value ([1]; 25° C.) was “about 15.6 months”. The solubility in water [2] was “poorly soluble in water”, the “Residual ratio of β cryptoxanthin Storage for one month (%)” value (from here on “Residual ratio … (%)”) ([3]; β cryptoxanthin 0.0005 parts by mass (powder) in water) was 5.3% and the “Residual ratio … (%)” value ([3]; β cryptoxanthin 0.0010 parts by mass (powder) in water) was 45.6%. For the same molecule, the “Residual ratio … (%)” value ([3]; β cryptoxanthin 0.0022 parts by mass (powder) in water) was 75.5%, the “Residual ratio … (%)” value ([3]; β cryptoxanthin 0.0031 parts by mass (powder) in water) was 82.4% and the “Residual ratio … (%)” value ([3]; β cryptoxanthin 0.0060 parts by mass (powder) in water) was 97.9%. For the same molecule, the “Residual ratio … (%)” value ([3]; β cryptoxanthin 0.0079 parts by mass (powder) in water) was 101.1%, the “Residual ratio … (%)” value ([4]; Comparative Example, β cryptoxanthin 0.0011 parts by mass (paste) in water) was 52.5% and the “Residual ratio … (%)” value ([4]; Comparative Example, β cryptoxanthin 0.0016 parts by mass (paste) in water) was 59.0%. The “Residual ratio … (%)” value ([4]; Example, β cryptoxanthin 0.0031 parts by mass (paste) in water) was 84.8%, the “Residual ratio … (%)” value ([4]; Example, β cryptoxanthin 0.0044 parts by mass (paste) in water) was 87.8% and the “Residual ratio … (%)” value ([4]; Example, β cryptoxanthin 0.0062 parts by mass (paste) in water) was 97.0%. For the same molecule, the “Residual ratio … (%)” value ([4]; Example, β cryptoxanthin 0.0086 parts by mass (paste) in water) was 95.3%, the “Residual ratio … (%)” value ([4]; Example, β cryptoxanthin 0.0176 parts by mass (paste) in water) was 93.2% and the “Residual ratio … (%)” value ([4]; Example, β cryptoxanthin 0.0244 parts by mass (paste) in water) was 105.9%.
